One data set concerns DBA/2 mice. The experiment in a line: Audiogenic seizure model. Format: in vivo. The settings on record: Mus musculus, po, 1 h, read-out: Seizure suppression. In a few lines: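 Male and female DBA/2 mice (3 weeks old, 8/group) dosed orally at 30 mg/kg in 5% gum arabic; 1 h later exposed to 12.6 kHz, 100-110 dB tone for 1 min or until tonic seizure. Maximum seizure score (0–4) recorded; suppression rate graded A (≥90%), B (70–<90%), C (50–<70%).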
With `Nc1cc(-c2cnc(Oc3ccccc3)nc2)ccn1` [Example 55], the inhibition in vivo at 30 mg/kg is more than 90%.

The data set is the same for the next values; noted with them: Mus musculus; DBA/2 mice, oral, dose 1 mg/kg, auditory stimulation 1 hour after administration; read-out: Seizure suppression.
Regarding `FC(F)(F)c1nnc2ccc(-c3cnc(Oc4ccccc4)nc3)cn12` [Example 279], the inhibition in vivo at 1 mg/kg is more than 90%.

The data set is the same for the next values; noted with them: Mus musculus; DBA/2 mice, oral, dose 3 mg/kg, auditory stimulation 1 hour after administration; read-out: Seizure suppression.
In the case of `O=c1ccc(-c2cnc(Oc3c(F)cccc3F)nc2)n[nH]1` [Example 101], the inhibition in vivo at 3 mg/kg is more than 90%.

As for `Nc1ccc(-c2cnc(Oc3cccc(C(F)(F)F)c3)nc2)nn1` [Example 40], the inhibition in vivo at 3 mg/kg was more than 90%.

As to `O=c1ccc(-c2cnc(Oc3ccc(F)cc3)nc2)n[nH]1` [Example 97], the inhibition in vivo at 3 mg/kg is more than 90%.

Still in this data set, the particulars now being: Mus musculus; DBA/2 mice, oral, dose 5 mg/kg, auditory stimulation 1 hour after administration; read-out: Seizure suppression.
Regarding `c1ccc(Oc2ncc(-c3ccc4nccn4c3)cn2)cc1` [Example 119, 6-(2-Phenoxypyrimidin-5-Yl) Imidazo[1,2-a]Pyridine], the inhibition in vivo at 5 mg/kg was more than 90%.

As to `FC(F)(F)c1ncc2ccc(-c3cnc(Oc4ccccc4)nc3)cn12` [Example 285], the inhibition in vivo at 5 mg/kg is more than 90%.

`c1ccc(Oc2ncc(-c3ccc4ncnn4c3)cn2)cc1` [Example 141]: the inhibition in vivo at 5 mg/kg is more than 90%.

Regarding `OC1CCN(c2cnc(Oc3ccccc3)nc2)CC1` [Example 226, 1-(2-Phenoxypyrimidin-5-Yl) Piperidin-4-Ol], the inhibition in vivo at 5 mg/kg is more than 90%.

As to `Nc1ccc(-c2cnc(Oc3cccc(F)c3)nc2)nn1` [Example 24, 6-(2-(3-Fluorophenoxy)Pyrimidin-5-Yl)Pyridazin-3-Amine], the inhibition in vivo at 5 mg/kg is more than 90%.

For `Nc1ccc(-c2cnc(Oc3ccccc3)nc2)nn1` [Example 30, 6-(2-Phenoxypyrimidin-5-Yl)Pyridazin-3-Amine], the inhibition in vivo at 5 mg/kg is more than 90%.

As to `NC(=O)c1ccc(-c2cnc(Oc3ccccc3)nc2)cc1` [Example 243], the inhibition in vivo at 5 mg/kg is more than 90%.

`c1cncc(Oc2ncc(-c3ccc4nccn4c3)cn2)c1` [Example 294]: the inhibition in vivo at 5 mg/kg is more than 90%.

Consider `Cc1cnc2ccc(-c3cnc(Oc4ccccc4)nc3)cn12` [Example 190], for which the inhibition in vivo at 5 mg/kg is more than 90%.

`c1ccc(Oc2ncc(-c3ccc4cncn4c3)cn2)cc1` [Example 155]: the inhibition in vivo at 5 mg/kg is more than 90%.

For `Cc1cn2ccc(-c3cnc(Oc4ccccc4)nc3)cc2n1` [Example 181], the inhibition in vivo at 5 mg/kg was in the range of 70 to 90%.

Regarding `Cc1c(-c2cnc(Oc3ccccc3)nc2)ccc2nccn12.Cl` [Example 198, 5-Methyl-6-(2-Phenoxypyrimidin-5-Yl) Imidazo[1,2-a]Pyridine Hydrochloride], the inhibition in vivo at 5 mg/kg is more than 90%.

Consider `Fc1cccc(Oc2ncc(-c3ccc4nccn4c3)cn2)c1` [Example 122], for which the inhibition in vivo at 5 mg/kg was more than 90%.

The same data set, now with this note: Mus musculus; DBA/2 mice, oral, dose 10 mg/kg, auditory stimulation 1 hour after administration; read-out: Seizure suppression.
Regarding `Cc1ccc(-c2cnc(Oc3ccccc3)nc2)cn1` [Example 8], the inhibition in vivo at 10 mg/kg is more than 90%.

For `O=c1ccc(-c2cnc(Oc3cc(F)cc(F)c3)nc2)n[nH]1` [Example 102], the inhibition in vivo at 10 mg/kg was more than 90%.

Take `FC(F)(F)c1ccc(-c2cnc(Oc3ccccc3)nc2)nn1` [Example 38, 3-(2-Phenoxypyrimidin-5-Yl)-6-(Trifluoromethyl)Pyridazine]: the inhibition in vivo at 10 mg/kg was more than 90%.

Still in this data set, the particulars now being: Mus musculus; DBA/2 mice, oral, dose 30 mg/kg, auditory stimulation 1 hour after administration; read-out: Seizure suppression.
In the case of `c1ccc(Oc2ncc(N3CCCCC3)cn2)cc1` [Example 223, 2-Phenoxy-5-(Piperidine-1-Yl)Pyrimidine], the inhibition in vivo at 30 mg/kg was more than 90%.

As to `O=C1CCN(c2ccc(Cc3ccccc3)cc2)C(=O)N1` [Example 304], the inhibition in vivo at 30 mg/kg was more than 90%.

For the compound `Nc1cncc(-c2cnc(Oc3ccccc3)nc2)c1` [Example 58], the inhibition in vivo at 30 mg/kg is more than 90%.

Consider `O=C1CCN(c2ccc(Oc3ccccc3F)nc2)C(=O)N1` [Example 331], for which the inhibition in vivo at 30 mg/kg lay in the range of 70 to 90%.

In the case of `O=C1CCN(c2ccc(Oc3cccc(OC(F)F)c3)cc2)C(=O)N1` [Example 314, 1-{4-[3-(Difluoromethoxy) Phenoxy]Phenyl}Dihydropyrimidine-2,4 (1H,3H)-Dione], the inhibition in vivo at 30 mg/kg was more than 90%.

Turning to `c1ccc(Oc2ncc(N3CCOCC3)cn2)cc1` [Example 224], the inhibition in vivo at 30 mg/kg was more than 90%.

Turning to `O=c1ccc(-c2cnc(Oc3ccccc3)nc2)c[nH]1` [Example 103], the inhibition in vivo at 30 mg/kg is more than 90%.

Regarding `O=C1CCCCN1c1cnc(Oc2cccc(F)c2)nc1` [Example 222], the inhibition in vivo at 30 mg/kg is more than 90%.

Take `CC1CC(=O)NC(=O)N1c1ccc(Oc2ccccc2)cc1` (stereo not shown) [Example 328, 6-Methyl-1-(4-Phenoxyphenyl)Dihydropyrimidine-2,4 (1H,3H)-Dione]: the inhibition in vivo at 30 mg/kg was more than 90%.

As for `Cc1cc(Oc2cccc(OC(F)(F)F)c2)ccc1N1CCC(=O)NC1=O` [Example 336], the inhibition in vivo at 30 mg/kg was 70 to 90%.

Still in this data set, the particulars now being: Mus musculus; DBA/2 mice, oral, dose 39 mg/kg, auditory stimulation 1 hour after administration; read-out: Seizure suppression.
For `Cc1cc(Oc2ccccc2)ccc1N1CCC(=O)NC1=O` [Example 323], the inhibition in vivo at 39 mg/kg was in the range of 70 to 90%.

For the next data set, the system named is ICR mice. The experiment in a line: Rotarod test (motor coordination). Format: in vivo, mouse. The settings on record: oral, dose 1 mg/kg, rotarod 1 hour after administration. On the procedure: This test is performed to evaluate the effect of the compound on the motor coordination. In this test example, the example compounds shown in Table 4 below were used as test compounds. Male ICR mice (Japan SLC, Inc., 5-6 weeks, 8 per group) were trained to remain on a fixed speed (15 rpm) rotating rod of rotarod apparatus (Muromachi Kikai Co., Ltd.) for 2 minutes. […] After 1 hour of oral administration, the mice were again placed on the rod accelerated from 4 rpm to 40 rpm over 5 minutes and the latency to fall off the rod was recorded for 200 seconds. The falling latency of the compound administration group was calculated as a relative value relative to the average value of the falling latency in the solvent administration group. Here, a coordination disorder of 25% or less was expressed as “A”, and a coordination disorder of more than 25% and 50% or less was expressed as “B”.
For orientation: Falling from the rotarod earlier than controls is read as motor impairment.
Take `FC(F)(F)c1nnc2ccc(-c3cnc(Oc4ccccc4)nc3)cn12` [Example 279]: the Motor dysfunction result was “A (a coordination disorder of 25% or less)”.

The same data set, now with this note: oral, dose 3 mg/kg, rotarod 1 hour after administration.
As for `O=c1ccc(-c2cnc(Oc3c(F)cccc3F)nc2)n[nH]1` [Example 101], the Motor dysfunction entry is “A (a coordination disorder of 25% or less)”.

Regarding `Nc1ccc(-c2cnc(Oc3cccc(C(F)(F)F)c3)nc2)nn1` [Example 40], the Motor dysfunction entry was “A (a coordination disorder of 25% or less)”.

`O=c1ccc(-c2cnc(Oc3ccc(F)cc3)nc2)n[nH]1` [Example 97]: the Motor dysfunction result is given as “A (a coordination disorder of 25% or less)”.

The data set is the same for the next values; noted with them: oral, dose 5 mg/kg, rotarod 1 hour after administration.
Turning to `c1ccc(Oc2ncc(-c3ccc4nccn4c3)cn2)cc1` [Example 119, 6-(2-Phenoxypyrimidin-5-Yl) Imidazo[1,2-a]Pyridine], the Motor dysfunction entry is “A (a coordination disorder of 25% or less)”.

`FC(F)(F)c1ncc2ccc(-c3cnc(Oc4ccccc4)nc3)cn12` [Example 285]: the Motor dysfunction entry was “A (a coordination disorder of 25% or less)”.

Regarding `c1ccc(Oc2ncc(-c3ccc4ncnn4c3)cn2)cc1` [Example 141], the Motor dysfunction result is “B (a coordination disorder of more than 25% and 50% or less)”.

On to `OC1CCN(c2cnc(Oc3ccccc3)nc2)CC1` [Example 226, 1-(2-Phenoxypyrimidin-5-Yl) Piperidin-4-Ol], for which the Motor dysfunction result was “B (a coordination disorder of more than 25% and 50% or less)”.

Take `Nc1ccc(-c2cnc(Oc3cccc(F)c3)nc2)nn1` [Example 24, 6-(2-(3-Fluorophenoxy)Pyrimidin-5-Yl)Pyridazin-3-Amine]: the Motor dysfunction result is reported as “A (a coordination disorder of 25% or less)”.

With `Nc1ccc(-c2cnc(Oc3ccccc3)nc2)nn1` [Example 30, 6-(2-Phenoxypyrimidin-5-Yl)Pyridazin-3-Amine], the Motor dysfunction entry is listed as “A (a coordination disorder of 25% or less)”.

For the compound `NC(=O)c1ccc(-c2cnc(Oc3ccccc3)nc2)cc1` [Example 243], the Motor dysfunction result is listed as “A (a coordination disorder of 25% or less)”.

`c1cncc(Oc2ncc(-c3ccc4nccn4c3)cn2)c1` [Example 294]: the Motor dysfunction entry is reported as “A (a coordination disorder of 25% or less)”.

Take `Cc1cnc2ccc(-c3cnc(Oc4ccccc4)nc3)cn12` [Example 190]: the Motor dysfunction result is on record as “A (a coordination disorder of 25% or less)”.

Consider `c1ccc(Oc2ncc(-c3ccc4cncn4c3)cn2)cc1` [Example 155], for which the Motor dysfunction entry is on record as “A (a coordination disorder of 25% or less)”.

For `Cc1cn2ccc(-c3cnc(Oc4ccccc4)nc3)cc2n1` [Example 181], the Motor dysfunction result is “A (a coordination disorder of 25% or less)”.

Take `Cc1c(-c2cnc(Oc3ccccc3)nc2)ccc2nccn12.Cl` [Example 198, 5-Methyl-6-(2-Phenoxypyrimidin-5-Yl) Imidazo[1,2-a]Pyridine Hydrochloride]: the Motor dysfunction entry is “A (a coordination disorder of 25% or less)”.

`Fc1cccc(Oc2ncc(-c3ccc4nccn4c3)cn2)c1` [Example 122]: the Motor dysfunction entry is recorded as “A (a coordination disorder of 25% or less)”.

Staying with this data set, now noted: oral, dose 10 mg/kg, rotarod 1 hour after administration.
As for `Cc1ccc(-c2cnc(Oc3ccccc3)nc2)cn1` [Example 8], the Motor dysfunction entry is “A (a coordination disorder of 25% or less)”.

Consider `O=c1ccc(-c2cnc(Oc3cc(F)cc(F)c3)nc2)n[nH]1` [Example 102], for which the Motor dysfunction entry was “A (a coordination disorder of 25% or less)”.

On to `FC(F)(F)c1ccc(-c2cnc(Oc3ccccc3)nc2)nn1` [Example 38, 3-(2-Phenoxypyrimidin-5-Yl)-6-(Trifluoromethyl)Pyridazine], for which the Motor dysfunction entry is reported as “A (a coordination disorder of 25% or less)”.

Staying with this data set, now noted: oral, dose 30 mg/kg, rotarod 1 hour after administration.
Take `c1ccc(Oc2ncc(N3CCCCC3)cn2)cc1` [Example 223, 2-Phenoxy-5-(Piperidine-1-Yl)Pyrimidine]: the Motor dysfunction entry was “A (a coordination disorder of 25% or less)”.

`O=C1CCN(c2ccc(Cc3ccccc3)cc2)C(=O)N1` [Example 304]: the Motor dysfunction result is recorded as “A (a coordination disorder of 25% or less)”.

On to `Nc1cncc(-c2cnc(Oc3ccccc3)nc2)c1` [Example 58], for which the Motor dysfunction entry is “A (a coordination disorder of 25% or less)”.

For the compound `O=C1CCN(c2ccc(Oc3ccccc3F)nc2)C(=O)N1` [Example 331], the Motor dysfunction entry is recorded as “A (a coordination disorder of 25% or less)”.

Turning to `O=C1CCN(c2ccc(Oc3cccc(OC(F)F)c3)cc2)C(=O)N1` [Example 314, 1-{4-[3-(Difluoromethoxy) Phenoxy]Phenyl}Dihydropyrimidine-2,4 (1H,3H)-Dione], the Motor dysfunction entry is given as “A (a coordination disorder of 25% or less)”.

As to `c1ccc(Oc2ncc(N3CCOCC3)cn2)cc1` [Example 224], the Motor dysfunction entry is listed as “A (a coordination disorder of 25% or less)”.

In the case of `O=c1ccc(-c2cnc(Oc3ccccc3)nc2)c[nH]1` [Example 103], the Motor dysfunction entry is on record as “A (a coordination disorder of 25% or less)”.

In the case of `O=C1CCCCN1c1cnc(Oc2cccc(F)c2)nc1` [Example 222], the Motor dysfunction result is listed as “A (a coordination disorder of 25% or less)”.

Turning to `Cc1cc(Oc2ccccc2)ccc1N1CCC(=O)NC1=O` [Example 323], the Motor dysfunction entry is “B (a coordination disorder of more than 25% and 50% or less)”.

Take `Nc1cc(-c2cnc(Oc3ccccc3)nc2)ccn1` [Example 55]: the Motor dysfunction entry is “A (a coordination disorder of 25% or less)”.

For the compound `CC1CC(=O)NC(=O)N1c1ccc(Oc2ccccc2)cc1` (stereo not shown) [Example 328, 6-Methyl-1-(4-Phenoxyphenyl)Dihydropyrimidine-2,4 (1H,3H)-Dione], the Motor dysfunction entry was “A (a coordination disorder of 25% or less)”.

For the compound `Cc1cc(Oc2cccc(OC(F)(F)F)c2)ccc1N1CCC(=O)NC1=O` [Example 336], the Motor dysfunction entry is “A (a coordination disorder of 25% or less)”.

Values taken from patent US12391674B2, “Heterocyclic compounds for the treatment of epilepsy” (OTSUKA PHARMACEUTICAL CO., LTD., priority 2018, dated 2025).
